Laboratory results reported in ChEMBL document CHEMBL1148995, “Antitumor agents from bohemic acid complex, VI. Schaunardimycin” (J Nat Prod, 1984).

Key:
[1] = system: L1210; assay: Antitumor activity against mouse L1210 cells implanted in CDF1 mouse assessed as median survival time at 12.8 mg/kg, ip single dose on day 1; assay type: functional; conditions: route intraperitoneal
[2] = system: L1210; assay: Antitumor activity against mouse L1210 cells implanted in CDF1 mouse assessed as median survival time at 6.4 mg/kg, ip single dose on day 1; assay type: functional; conditions: route intraperitoneal
[3] = system: L1210; assay: Antitumor activity against mouse L1210 cells implanted in CDF1 mouse assessed as median survival time at 3.2 mg/kg, ip single dose on day 1; assay type: functional; conditions: route intraperitoneal
[4] = system: L1210; assay: Antitumor activity against mouse L1210 cells implanted in CDF1 mouse assessed as median survival time at 1.6 mg/kg, ip single dose on day 1; assay type: functional; conditions: route intraperitoneal
[5] = system: L1210; assay: Antitumor activity against mouse L1210 cells implanted in CDF1 mouse assessed as median survival time at 0.8 mg/kg, ip single dose on day 1; assay type: functional; conditions: route intraperitoneal
[6] = system: L1210; assay: Antitumor activity against mouse L1210 cells implanted in CDF1 mouse assessed as median survival time at 0.4 mg/kg, ip single dose on day 1; assay type: functional; conditions: route intraperitoneal
[7] = system: L1210; assay: Antitumor activity against mouse L1210 cells implanted in CDF1 mouse assessed as median survival time at 0.2 mg/kg, ip single dose on day 1; assay type: functional; conditions: route intraperitoneal
[8] = system: L1210; assay: Antitumor activity against mouse L1210 cells implanted in CDF1 mouse assessed as median survival time at 6.4 mg/kg, ip qd for 1 to 5 days; assay type: functional; conditions: route intraperitoneal
[9] = system: L1210; assay: Antitumor activity against mouse L1210 cells implanted in CDF1 mouse assessed as median survival time at 3.2 mg/kg, ip qd for 1 to 5 days; assay type: functional; conditions: route intraperitoneal
[10] = system: L1210; assay: Antitumor activity against mouse L1210 cells implanted in CDF1 mouse assessed as median survival time at 1.6 mg/kg, ip qd for 1 to 5 days; assay type: functional; conditions: route intraperitoneal
[11] = system: L1210; assay: Antitumor activity against mouse L1210 cells implanted in CDF1 mouse assessed as median survival time at 0.8 mg/kg, ip qd for 1 to 5 days; assay type: functional; conditions: route intraperitoneal
[12] = system: L1210; assay: Antitumor activity against mouse L1210 cells implanted in CDF1 mouse assessed as median survival time at 0.4 mg/kg, ip qd for 1 to 5 days; assay type: functional; conditions: route intraperitoneal
[13] = system: L1210; assay: Antitumor activity against mouse L1210 cells implanted in CDF1 mouse assessed as median survival time at 0.2 mg/kg, ip qd for 1 to 5 days; assay type: functional; conditions: route intraperitoneal
[14] = system: L1210; assay: Antitumor activity against mouse L1210 cells implanted in CDF1 mouse at 12.8 mg/kg, ip single dose on day 1 relative to control; assay type: functional; conditions: route intraperitoneal
[15] = system: L1210; assay: Antitumor activity against mouse L1210 cells implanted in CDF1 mouse at 6.4 mg/kg, ip single dose on day 1 relative to control; assay type: functional; conditions: route intraperitoneal
[16] = system: L1210; assay: Antitumor activity against mouse L1210 cells implanted in CDF1 mouse at 3.2 mg/kg, ip single dose on day 1 relative to control; assay type: functional; conditions: route intraperitoneal
[17] = system: L1210; assay: Antitumor activity against mouse L1210 cells implanted in CDF1 mouse at 1.6 mg/kg, ip single dose on day 1 relative to control; assay type: functional; conditions: route intraperitoneal
[18] = system: L1210; assay: Antitumor activity against mouse L1210 cells implanted in CDF1 mouse at 0.8 mg/kg, ip single dose on day 1 relative to control; assay type: functional; conditions: route intraperitoneal
[19] = system: L1210; assay: Antitumor activity against mouse L1210 cells implanted in CDF1 mouse at 0.4 mg/kg, ip single dose on day 1 relative to control; assay type: functional; conditions: route intraperitoneal
[20] = system: L1210; assay: Antitumor activity against mouse L1210 cells implanted in CDF1 mouse at 0.2 mg/kg, ip single dose on day 1 relative to control; assay type: functional; conditions: route intraperitoneal
[21] = system: L1210; assay: Antitumor activity against mouse L1210 cells implanted in CDF1 mouse at 6.4 mg/kg, ip qd for 1 to 5 days relative to control; assay type: functional; conditions: route intraperitoneal
[22] = system: L1210; assay: Antitumor activity against mouse L1210 cells implanted in CDF1 mouse at 3.2 mg/kg, ip qd for 1 to 5 days relative to control; assay type: functional; conditions: route intraperitoneal
[23] = system: L1210; assay: Antitumor activity against mouse L1210 cells implanted in CDF1 mouse at 1.6 mg/kg, ip qd for 1 to 5 days relative to control; assay type: functional; conditions: route intraperitoneal
[24] = system: L1210; assay: Antitumor activity against mouse L1210 cells implanted in CDF1 mouse at 0.8 mg/kg, ip qd for 1 to 5 days relative to control; assay type: functional; conditions: route intraperitoneal
[25] = system: L1210; assay: Antitumor activity against mouse L1210 cells implanted in CDF1 mouse at 0.4 mg/kg, ip qd for 1 to 5 days relative to control; assay type: functional; conditions: route intraperitoneal
[26] = system: Mus musculus; assay: Toxicity in mouse L1210 cells implanted CDF1 mouse assessed as average weight gain at 12.8 mg/kg, ip single dose on day 1; assay type: organism-based; set-up: dose 12.8 mg/kg, route intraperitoneal; conditions: in vivo
[27] = system: Mus musculus; assay: Toxicity in mouse L1210 cells implanted CDF1 mouse assessed as average weight gain at 6.4 mg/kg, ip single dose on day 1; assay type: organism-based; set-up: dose 6.4 mg/kg, route intraperitoneal; conditions: in vivo
[28] = system: Mus musculus; assay: Toxicity in mouse L1210 cells implanted CDF1 mouse assessed as average weight gain at 3.2 mg/kg, ip single dose on day 1; assay type: organism-based; set-up: dose 3.2 mg/kg, route intraperitoneal; conditions: in vivo
[29] = system: Mus musculus; assay: Toxicity in mouse L1210 cells implanted CDF1 mouse assessed as average weight gain at 1.6 mg/kg, ip single dose on day 1; assay type: organism-based; set-up: dose 1.6 mg/kg, route intraperitoneal; conditions: in vivo
[30] = system: Mus musculus; assay: Toxicity in mouse L1210 cells implanted CDF1 mouse assessed as average weight gain at 0.8 mg/kg, ip single dose on day 1; assay type: organism-based; set-up: dose 0.8 mg/kg, route intraperitoneal; conditions: in vivo
[31] = system: Mus musculus; assay: Toxicity in mouse L1210 cells implanted CDF1 mouse assessed as average weight gain at 0.4 mg/kg, ip single dose on day 1; assay type: organism-based; set-up: dose 0.4 mg/kg, route intraperitoneal; conditions: in vivo
[32] = system: Mus musculus; assay: Toxicity in mouse L1210 cells implanted CDF1 mouse assessed as average weight gain at 0.2 mg/kg, ip single dose on day 1; assay type: organism-based; set-up: dose 0.2 mg/kg, route intraperitoneal; conditions: in vivo
[33] = system: Mus musculus; assay: Toxicity in mouse L1210 cells implanted CDF1 mouse assessed as average weight gain at 6.4 mg/kg, ip qd for 1 to 5 days; assay type: organism-based; set-up: dose 6.4 mg/kg, route intraperitoneal; conditions: in vivo
[34] = system: Mus musculus; assay: Toxicity in mouse L1210 cells implanted CDF1 mouse assessed as average weight gain at 3.2 mg/kg, ip qd for 1 to 5 days; assay type: organism-based; set-up: dose 3.2 mg/kg, route intraperitoneal; conditions: in vivo
[35] = system: Mus musculus; assay: Toxicity in mouse L1210 cells implanted CDF1 mouse assessed as average weight gain at 1.6 mg/kg, ip qd for 1 to 5 days; assay type: organism-based; set-up: dose 1.6 mg/kg, route intraperitoneal; conditions: in vivo
[36] = system: Mus musculus; assay: Toxicity in mouse L1210 cells implanted CDF1 mouse assessed as average weight gain at 0.8 mg/kg, ip qd for 1 to 5 days; assay type: organism-based; set-up: dose 0.8 mg/kg, route intraperitoneal; conditions: in vivo
[37] = system: Mus musculus; assay: Toxicity in mouse L1210 cells implanted CDF1 mouse assessed as average weight gain at 0.4 mg/kg, ip qd for 1 to 5 days; assay type: organism-based; set-up: dose 0.4 mg/kg, route intraperitoneal; conditions: in vivo
[38] = system: Mus musculus; assay: Toxicity in mouse L1210 cells implanted CDF1 mouse assessed as average weight gain at 0.2 mg/kg, ip qd for 1 to 5 days; assay type: organism-based; set-up: dose 0.2 mg/kg, route intraperitoneal; conditions: in vivo
[39] = system: Mus musculus; assay: Toxicity in mouse L1210 cells implanted CDF1 mouse assessed as survivors on day 5 at 12.8 mg/kg, ip single dose on day 1; assay type: organism-based; set-up: dose 12.8 mg/kg, route intraperitoneal; conditions: in vivo
[40] = system: Mus musculus; assay: Toxicity in mouse L1210 cells implanted CDF1 mouse assessed as survivors on day 5 at 6.4 mg/kg, ip single dose on day 1; assay type: organism-based; set-up: dose 6.4 mg/kg, route intraperitoneal; conditions: in vivo
[41] = system: Mus musculus; assay: Toxicity in mouse L1210 cells implanted CDF1 mouse assessed as survivors on day 5 at 3.2 mg/kg, ip single dose on day 1; assay type: organism-based; set-up: dose 3.2 mg/kg, route intraperitoneal; conditions: in vivo
[42] = system: Mus musculus; assay: Toxicity in mouse L1210 cells implanted CDF1 mouse assessed as survivors on day 5 at 1.6 mg/kg, ip single dose on day 1; assay type: organism-based; set-up: dose 1.6 mg/kg, route intraperitoneal; conditions: in vivo
[43] = system: Mus musculus; assay: Toxicity in mouse L1210 cells implanted CDF1 mouse assessed as survivors on day 5 at 0.8 mg/kg, ip single dose on day 1; assay type: organism-based; set-up: dose 0.8 mg/kg, route intraperitoneal; conditions: in vivo
[44] = system: Mus musculus; assay: Toxicity in mouse L1210 cells implanted CDF1 mouse assessed as survivors on day 5 at 0.4 mg/kg, ip single dose on day 1; assay type: organism-based; set-up: dose 0.4 mg/kg, route intraperitoneal; conditions: in vivo
[45] = system: Mus musculus; assay: Toxicity in mouse L1210 cells implanted CDF1 mouse assessed as survivors on day 5 at 3.2 mg/kg, ip qd for 1 to 5 days; assay type: organism-based; set-up: dose 3.2 mg/kg, route intraperitoneal; conditions: in vivo
[46] = system: Mus musculus; assay: Toxicity in mouse L1210 cells implanted CDF1 mouse assessed as survivors on day 5 at 1.6 mg/kg, ip qd for 1 to 5 days; assay type: organism-based; set-up: dose 1.6 mg/kg, route intraperitoneal; conditions: in vivo
[47] = system: Mus musculus; assay: Toxicity in mouse L1210 cells implanted CDF1 mouse assessed as survivors on day 5 at 0.8 mg/kg, ip qd for 1 to 5 days; assay type: organism-based; set-up: dose 0.8 mg/kg, route intraperitoneal; conditions: in vivo
[48] = system: Mus musculus; assay: Toxicity in mouse L1210 cells implanted CDF1 mouse assessed as survivors on day 5 at 0.4 mg/kg, ip qd for 1 to 5 days; assay type: organism-based; set-up: dose 0.4 mg/kg, route intraperitoneal; conditions: in vivo
[49] = system: Mus musculus; assay: Toxicity in mouse L1210 cells implanted CDF1 mouse assessed as survivors on day 5 at 0.2 mg/kg, ip qd for 1 to 5 days; assay type: organism-based; set-up: dose 0.2 mg/kg, route intraperitoneal; conditions: in vivo
[50] = system: Mus musculus; assay: Toxicity in mouse L1210 cells implanted CDF1 mouse assessed as median survival time at 25.6 mg/kg, ip single dose on day 1; assay type: organism-based; set-up: dose 25.6 mg/kg, route intraperitoneal; conditions: in vivo
[51] = system: L1210; assay: Antitumor activity against mouse L1210 cells implanted in CDF1 mouse at 0.2 mg/kg, ip qd for 1 to 5 days relative to control; assay type: functional; conditions: route intraperitoneal

Q: Which results are given for `CC[C@@]1(O)C[C@H](O[C@H]2C[C@H](N(C)C)[C@H](O[C@H]3C[C@H](O)[C@H](O)[C@H](C)O3)[C@H](C)O2)c2c(cc3c(c2O)C(=O)c2c(O)ccc(O)c2C3=O)[C@H]1C(=O)OC` [MUSETTAMYCIN]?
A: MST [1]: 10 days; MST [2]: 9.5 days; MST [3]: 8 days; MST [4]: 8 days; MST [5]: 7 days; MST [6]: 6.5 days; MST [7]: 6 days; MST [8]: 6 days; MST [9]: 10 days; MST [10]: 9.5 days; MST [11]: 8 days; MST [12]: 7 days; MST [13]: 6.5 days; T/C [14]: 167%; T/C [15]: 158%; T/C [16]: 133%; T/C [17]: 133%; T/C [18]: 117%; T/C [19]: 108%; T/C [20]: 100%; T/C [21]: 100%; T/C [22]: 167%; T/C [23]: 158%; T/C [24]: 133%; T/C [25]: 117%; Activity [26]: -2.3 g; Activity [27]: 0.3 g; Activity [28]: 0.8 g; weight gain [29]: 0.7 g; weight gain [30]: 2.6 g; weight gain [31]: 2.7 g; weight gain [32]: 2.7 g; Activity [33]: -1.9 g; Activity [34]: -1.2 g; weight gain [35]: 0.3 g; weight gain [36]: 1.4 g; weight gain [37]: 2.3 g; weight gain [38]: 2.8 g; Activity [39]: Active; Activity [40]: Active; Activity [41]: Active; Activity [42]: Active; Activity [43]: Active; Activity [44]: Active; Activity [45]: Active; Activity [46]: Active; Activity [47]: Active; Activity [48]: Active; Activity [49]: Active; Activity [50]: Toxic; T/C [51]: 117%
